Results taken from ChEMBL document CHEMBL1125153, “Structure-activity correlations for psychotomimetics. 1. Phenylalkylamines: electronic, volume, and hydrophobicity parameters” (1990).

Assays:
Format in all cases: functional
Homo sapiens [1] = organism: Homo sapiens; test: Log value of hallucinogenic activity was determined
Homo sapiens [2] = organism: Homo sapiens; test: Hallucinogenic activity i.e; ratio of effective dose of mescaline to the effective dose in human
Rattus norvegicus = test: Effective dose in rats trained on 1 mg/kg DOM.

| SMILES | Log activity (Homo sapiens [1]) | Activity (Homo sapiens [2]) | ED50 (Rattus norvegicus) |
| --- | --- | --- | --- |
| COc1ccc(CCN)cc1 | -0.301 | <1 MU | – |
| COc1cc(CC(C)N)c(OC)c(OC)c1 (stereo not drawn) | 0.602 | 4 MU | 16.5 mg/kg |
| COc1cc2c(cc1CC(C)N)OCO2 (stereo not drawn) | 1 | 10 MU | – |
| CCCCSc1c(OC)cc(CCN)cc1OC | 0.477 | 3 MU | – |
| COc1cc(CCN)c(OC)cc1C | 1.301 | 20 MU | 1.31 mg/kg |
| CCc1cc(OC)c(CCN)cc1OC | 1.255 | 18 MU | – |
| CCOc1cc(CCN)cc(OC)c1OCC | 0.176 | 1.5 MU | – |
| COc1cc(CC(C)N)c(OC)c(OC)c1OC (stereo not drawn) | 0.778 | 6 MU | – |
| COc1ccc(OC)c(OC)c1CC(C)N (stereo not drawn) | 1 | 10 MU | – |
| CCSc1cc(CCN)cc(OC)c1OC | 0.778 | 6 MU | – |
| COc1cc(CC(C)N)c(OC)c2c1OCO2 (stereo not drawn) | 1.079 | 12 MU | – |
| COc1cc(CC(C)N)cc2c1OCO2 (stereo not drawn) | 0.431 | 2.7 MU | 3.66 mg/kg |
| CCOc1cc(CCN)cc(SC)c1OCC | 0.301 | 2 MU | – |
| CCOc1c(OC)cc(CCN)cc1SCC | 0.301 | 2 MU | – |
| CCOc1cc(CCN)cc(OC)c1SCC | 0.602 | 4 MU | – |
| CCOc1cc(CCN)cc(OC)c1OC | 0 | 1 MU | – |
| COc1c(CC(C)N)ccc2c1OCO2 (stereo not drawn) | 1 | 10 MU | – |
| COc1cc(SC(C)C)c(OC)cc1CC(C)N (stereo not drawn) | 1.602 | 40 MU | – |
| CCCSc1c(OC)cc(CCN)cc1OC | 1.204 | 16 MU | – |
| COc1ccc(CC(C)N)c2c1OCO2 (stereo not drawn) | 0.477 | 3 MU | – |
| CCCCOc1c(OC)cc(CCN)cc1OC | 0.301 | 2 MU | – |

| SMILES | Log activity (Homo sapiens [1]) | Activity (Homo sapiens [2]) | ED50 (Rattus norvegicus) |
| --- | --- | --- | --- |
| CCOc1cc(CCN)cc(OCC)c1OC | -0.301 | <1 MU | – |
| CCCOc1cc(OC)c(CC(C)N)cc1OC (stereo not drawn) | 1.301 | 20 MU | – |
| CCOc1cc(CCN)cc(OCC)c1SC | -0.301 | <1 MU | – |
| CCOc1cc(CCN)cc(SC)c1OC | -0.301 | <1 MU | – |
| CCOc1cc(CCN)cc(SCC)c1OCC | -0.301 | <1 MU | – |
| COc1cc(CC(C)N)cc(C)c1OCc1ccccc1 (stereo not drawn) | 0.301 | 2 MU | – |
| COc1cc(CC(C)N)c(OC)cc1CC(C)C (stereo not drawn) | 1.301 | 20 MU | – |
| CCCCCc1cc(OC)c(CC(C)N)cc1OC (stereo not drawn) | 1 | 10 MU | – |
| COc1ccc2c(c1CC(C)N)OCO2 (stereo not drawn) | 1 | 10 MU | – |
| CCCOc1cc(CCN)cc(OC)c1OC | -0.301 | <1 MU | – |
| COc1ccc(CCN)cc1OC | -1 | <0.2 MU | – |
| COc1cc(CCN)cc(SC)c1OC | 0.778 | 6 MU | – |
| COc1cc(CCN)cc(OC)c1SC | 1.079 | 12 MU | – |
| COc1ccc(CC(C)N)cc1OC (stereo not drawn) | -0.301 | 0.5 MU | – |
| COc1ccc(CCN)c(OC)c1OC | -0.301 | <1 MU | – |
| COc1ccc(CC(C)N)c(OC)c1 (stereo not drawn) | 0.699 | 5 MU | 4.88 mg/kg |
| COc1cc(CC(C)N)cc(OC)c1OC (stereo not drawn) | 0.301 | 2 MU | 6.34 mg/kg |
| COc1ccc(CC(C)N)c(OC)c1OC (stereo not drawn) | 0.301 | 2 MU | 7.8 mg/kg |
| CCOc1c(OC)cc(CCN)cc1OC | 0.845 | 7 MU | – |
| CCOc1c(OC)cc(CCN)cc1SC | 0.778 | 6 MU | – |
| CCSc1c(OC)cc(CCN)cc1OC | 1.301 | 20 MU | – |

| SMILES | Log activity (Homo sapiens [1]) | Activity (Homo sapiens [2]) | ED50 (Rattus norvegicus) |
| --- | --- | --- | --- |
| CCCOc1c(OC)cc(CCN)cc1OC | 0.778 | 6 MU | – |
| COc1cc(OC)c(CC(C)N)c(OC)c1 (stereo not drawn) | 1 | 10 MU | 3.69 mg/kg |
| CCOc1cc(CCN)cc(OCC)c1SCC | -0.301 | <1 MU | – |
| CCOc1cc(CCN)cc(SCC)c1OC | -0.301 | <1 MU | – |
| COc1cc(OC)c(OC)cc1CCN | -0.301 | <1 MU | – |
| CCOc1cc(CCN)cc(OCC)c1OCC | -0.301 | <1 MU | – |
| NCCc1ccc2c(c1)OCO2 | 0 | 1 MU | – |
| CCOc1cc(CCN)cc(OC)c1SC | 0.602 | 4 MU | – |
| COc1c(CC(C)N)cc2c(c1OC)OCO2 (stereo not drawn) | 0.699 | 5 MU | – |
| COc1cc(SC)c(OC)cc1CC(C)N (stereo not drawn) | 1.602 | 40 MU | – |
| CCCCc1cc(OC)c(CC(C)N)cc1OC (stereo not drawn) | 1.602 | 40 MU | 0.91 mg/kg |
| CCc1cc(OC)c(CC(C)N)cc1OC (stereo not drawn) | 2 | 100 MU | 0.23 mg/kg |
| CCOc1cc(OC)c(CC(C)N)cc1OC (stereo not drawn) | 1.301 | 20 MU | – |
| COc1cc(OC)c(OC)cc1CC(C)N (stereo not drawn) | 1.301 | 20 MU | – |
| CCCc1cc(OC)c(CC(C)N)cc1OC (stereo not drawn) | 1.903 | 80 MU | 0.17 mg/kg |
| COc1ccc(OC)c(CC(C)N)c1 (stereo not drawn) | 0.903 | 8 MU | 5.51 mg/kg |
| COc1cc(CC(C)N)c(OC)cc1C (stereo not drawn) [DOM] | 1.903 | 80 MU | 0.44 mg/kg |
| COc1cc(CCN)cc(OC)c1OC [MESCALINE] | 0 | 1 MU | 14.6 mg/kg |
| COc1ccc(CC(C)N)cc1 (stereo not drawn) [PARA-METHOXYAMPHETAMINE] | 0.699 | 5 MU | – |
| CC(N)Cc1ccc2c(c1)OCO2 (stereo not drawn) [TENAMFETAMINE] | 0.477 | 3 MU | 1.68 mg/kg |
